IC50 and EC50 data for 34 compounds are collected here from patent US8288379B2, “Thia-triaza-cyclopentazulenes” (Boehringer Ingelheim International GmbH, priority 2009, dated 2012).

The target in one experiment is T1, FRAP1 (mTOR) kinase (Homo sapiens, UniProt P42345).
T1 construct: purchased Invitrogen PV4753
Briefly: Inhibition of mTOR-induced p-4E-BP1 phosphorylation (TR-FRET mTOR Activity Kit; Invitrogen). In kind it is biochemical. As to conditions: 400 nM GFP-4E-BP1 substrate, ~150 ng/mL mTOR, one hour at room temperature. The method, boiled down:
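LanthaScreen TR-FRET: mTOR with GFP-4E-BP1 substrate in HEPES pH 7.5 buffer with 10 mM MnCl2, compound preincubated 30 min at RT, then ATP added and reacted 1 h at 20-25 °C. Stopped with EDTA plus Tb-anti-p4E-BP1 (pThr46), 1 h; GFP/Tb emission ratio over a 16-point curve, sigmoidal fit for IC50.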
In general terms: TR-FRET usually uses a lanthanide donor and a delayed reading to cut background.

A further experiment relates to PC-3 cells. Briefly: Inhibition of proliferation: CyQuant PC-3. In kind it is cell-based. The following applies: 72 h; PC-3 human prostate carcinoma cells, incubated with compounds for 3 days, CyQuant NF DNA dye. The method, boiled down:
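PC-3 proliferation read by CyQuant NF: DNA-binding dye with membrane permeabilization reagent added after medium removal, 30-60 min incubation, fluorescence at Ex 485/Em 530 nm. Proliferation judged from cell counts of drug-treated versus untreated controls.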

T1 sequence (P42345 1360-2549 limits assumed): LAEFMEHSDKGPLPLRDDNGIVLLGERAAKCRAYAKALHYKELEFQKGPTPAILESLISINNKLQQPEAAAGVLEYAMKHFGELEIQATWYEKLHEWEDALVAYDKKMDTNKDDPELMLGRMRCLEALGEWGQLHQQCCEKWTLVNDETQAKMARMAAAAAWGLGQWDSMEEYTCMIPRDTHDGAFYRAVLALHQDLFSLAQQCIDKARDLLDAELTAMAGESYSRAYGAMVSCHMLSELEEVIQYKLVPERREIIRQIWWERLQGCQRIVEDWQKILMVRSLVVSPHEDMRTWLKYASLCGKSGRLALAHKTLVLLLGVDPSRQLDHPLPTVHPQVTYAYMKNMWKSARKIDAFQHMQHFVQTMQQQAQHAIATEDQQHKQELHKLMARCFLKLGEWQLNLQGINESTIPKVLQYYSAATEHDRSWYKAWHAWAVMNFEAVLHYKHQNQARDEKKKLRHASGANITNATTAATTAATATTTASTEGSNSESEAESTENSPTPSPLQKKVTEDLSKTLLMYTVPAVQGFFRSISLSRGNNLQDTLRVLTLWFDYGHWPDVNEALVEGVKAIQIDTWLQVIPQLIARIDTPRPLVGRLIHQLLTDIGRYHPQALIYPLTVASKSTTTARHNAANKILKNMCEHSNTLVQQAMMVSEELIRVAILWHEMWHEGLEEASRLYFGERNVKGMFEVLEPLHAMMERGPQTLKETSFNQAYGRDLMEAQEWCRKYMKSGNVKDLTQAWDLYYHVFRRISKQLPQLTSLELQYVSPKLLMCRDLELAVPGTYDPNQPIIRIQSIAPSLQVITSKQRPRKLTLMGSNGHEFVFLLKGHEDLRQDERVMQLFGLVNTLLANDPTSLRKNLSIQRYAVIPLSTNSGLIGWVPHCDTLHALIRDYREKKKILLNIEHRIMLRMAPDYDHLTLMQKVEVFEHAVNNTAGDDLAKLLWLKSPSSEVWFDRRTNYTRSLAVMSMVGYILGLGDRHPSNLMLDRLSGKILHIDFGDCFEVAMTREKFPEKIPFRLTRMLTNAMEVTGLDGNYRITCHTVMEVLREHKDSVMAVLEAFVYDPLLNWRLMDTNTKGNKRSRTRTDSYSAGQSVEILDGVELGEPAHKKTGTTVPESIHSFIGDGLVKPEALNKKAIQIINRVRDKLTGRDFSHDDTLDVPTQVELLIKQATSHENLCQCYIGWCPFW

One may read the IC50 as the concentration at which inhibition is half-maximal. The low end stands for greater potency in that assay, the high end for weaker potency in that assay. In general, EC50 refers to the concentration that produces a half-maximal response. For the compound `CCNc1ccc(-c2nn(-c3ccccc3OC)c3c2CCCc2nc(NC(C)=O)sc2-3)cn1` [Example B-78], half-maximal inhibition at FRAP1 (mTOR) kinase (IC50) required 136 nM. Further, the EC50 with PC-3 cells is 249 nM.
For `CCNc1ccc(-c2nn(-c3ccccc3CC)c3c2CCCc2nc(NC(C)=O)sc2-3)cn1` [Example B-79] the same measures were 65 nM and 62 nM.
For `CNc1ccc(-c2nn(-c3ccccc3F)c3c2CCCc2nc(NC(C)=O)sc2-3)cn1` [Example B-81, N-[1-(2-Fluoro-phenyl)-3-(6-methylamino-pyridin-3-yl)-1,4,5,6-tetrahydro-9-thia-1,2,7-triaza-cyclopenta[e]azulen-8-yl]-acetamide] the same measures were 41 nM and 23 nM.
In turn, `CNc1ccc(-c2nn(CCN3CCOCC3)c3c2CCCc2nc(NC(C)=O)sc2-3)cn1` [Example B-82, N-[3-(6-Methylamino-pyridin-3-yl)-1-(2-morpholin-4-yl-ethyl)-1,4,5,6-tetrahydro-9-thia-1,2,7-triaza-cyclopenta[e]azulen-8-yl]-acetamide] showed an IC50 against FRAP1 (mTOR) kinase of 33 nM. Also, the EC50 with PC-3 cells came to 49 nM.
For `CNc1ccc(-c2nn(C3CCCOC3)c3c2CCCc2nc(NC(C)=O)sc2-3)cn1` (centres unmarked) [Example B-83, N-[3-(6-Methylamino-pyridin-3-yl)-1-(tetrahydro-pyran-3-yl)-1,4,5,6-tetrahydro-9-thia-1,2,7-triaza-cyclopenta[e]azulen-8-yl]-acetamide] the same measures were 65 nM and 41 nM.
For `CNc1ccc(-c2nn(-c3ccncc3C)c3c2CCCc2nc(NC(C)=O)sc2-3)cn1` [Example B-85, N-[3-(6-Methylamino-pyridin-3-yl)-1-(3-methyl-pyridin-4-yl)-1,4,5,6-tetrahydro-9-thia-1,2,7-triaza-cyclopenta[e]azulen-8-yl]-acetamide] the same measures were 24 nM and 76 nM.
At FRAP1 (mTOR) kinase, `CNc1ccc(-c2nn(CC(C)C)c3c2CCCc2nc(NC(C)=O)sc2-3)cn1` [Example B-86, N-[1-isobutyl-3-(6-methylamino-pyridin-3-yl)-1,4,5,6-tetrahydro-9-thia-1,2,7-triaza-cyclopenta[e]azulen-8-yl]-acetamide] came in with an IC50 of 32 nM. The EC50 in the experiment on PC-3 cells amounted to 47 nM.
For `CNc1ccc(-c2nn(-c3ccccc3)c3c2CCCc2nc(NC(C)=O)sc2-3)cn1` [Example B-87, N-[3-(6-Methylamino-pyridin-3-yl)-1-phenyl-1,4,5,6-tetrahydro-9-thia-1,2,7-triaza-cyclopenta[e]azulen-8-yl]-acetamide] the same measures were 55 nM and 21 nM.
For `CNc1ccc(-c2nn(-c3cccc(OC)c3)c3c2CCCc2nc(NC(C)=O)sc2-3)cn1` [Example B-89] the same measures were 57 nM and 72 nM.
The corresponding values for `CC(=O)Nc1nc2c(s1)-c1c(c(-c3ccc(C)nc3)nn1-c1ccncc1C)CCC2` [Example B-90] are 118 nM and 422 nM.
Consider `CCCn1nc(-c2ccc(C)nc2)c2c1-c1sc(NC(C)=O)nc1CCC2` [Example B-92], for which, at FRAP1 (mTOR) kinase, it took 152 nM to reach half-maximal inhibition (IC50). Further, the EC50 in the experiment on PC-3 cells worked out at 221 nM.
For `CN(C)C(=O)Nc1nc2c(s1)-c1c(c(-c3ccc(N)nc3)nn1-c1ccccc1)CCC2` [Example B-96, 3-[3-(6-Amino-pyridin-3-yl)-1-phenyl-1,4,5,6-tetrahydro-9-thia-1,2,7-triaza-cyclopenta[e]azulen-8-yl]-1,1-dimethyl-urea], on FRAP1 (mTOR) kinase, 67 nM corresponded to half-maximal inhibition (IC50). Also, the EC50 with PC-3 cells stood at 289 nM.
The corresponding values for `NCC(=O)Nc1nc2c(s1)-c1c(c(-c3ccc(N)nc3)nn1-c1ccccc1F)CCC2` [Example B-101] are 22 nM and 96 nM.
The corresponding values for `COCCC(=O)Nc1nc2c(s1)-c1c(c(-c3ccc(N)nc3)nn1-c1ccccc1C)CCC2` [Example B-103, N-[3-(6-Amino-pyridin-3-yl)-1-o-tolyl-1,4,5,6-tetrahydro-9-thia-1,2,7-triaza-cyclopenta[e]azulen-8-yl]-3-methoxy-propionamide] are 37 nM and 87 nM.
For `CNc1ccc(-c2nn(-c3ccccc3C)c3c2CCCc2nc(NC(=O)CCOC)sc2-3)cn1` [Example B-106, 3-Methoxy-N-[3-(6-methylamino-pyridin-3-yl)-1-o-tolyl-1,4,5,6-tetrahydro-9-thia-1,2,7-triaza-cyclopenta[e]azulen-8-yl]-propionamide] the same measures were 69 nM and 178 nM.
For the compound `CNc1ccc(-c2nn(-c3ccccc3C)c3c2CCCc2nc(NC(=O)CCC(=O)N(C)C)sc2-3)cn1` [Example B-108], on FRAP1 (mTOR) kinase, 102 nM corresponded to half-maximal inhibition (IC50). Also, the EC50 in the experiment with PC-3 cells stood at 106 nM.
Regarding `CNc1ccc(-c2nn(-c3ccccc3C)c3c2CCCc2nc(NC(=O)CCc4ncc[nH]4)sc2-3)cn1` [Example B-109], the IC50 at FRAP1 (mTOR) kinase amounted to 49 nM. The EC50 in the experiment with PC-3 cells worked out at 162 nM.
For `CC(=O)Nc1nc2c(s1)-c1c(c(-c3c[nH]cn3)nn1-c1ccccc1F)CCC2` [Example B-111, N-[1-(2-Fluoro-phenyl)-3-(1H-imidazol-4-yl)-1,4,5,6-tetrahydro-9-thia-1,2,7-triaza-cyclopenta[e]azulen-8-yl]-acetamide] the same measures were 4 nM and 38 nM.
For `CC(=O)Nc1nc2c(s1)-c1c(c(-c3c[nH]cn3)nn1-c1ccccc1C)CCC2` [Example B-112, N-[3-(1H-imidazol-4-yl)-1-o-tolyl-1,4,5,6-tetrahydro-9-thia-1,2,7-triaza-cyclopenta[e]azulen-8-yl]-acetamide] the same measures were 39 nM and 110 nM.
For `CC(=O)Nc1nc2c(s1)-c1c(c(-c3c[nH]cn3)nn1CC(C)C)CCC2` [Example B-113] the same measures were 9 nM and 29 nM.
On FRAP1 (mTOR) kinase, `CC(=O)Nc1nc2c(s1)-c1c(c(-c3c[nH]cn3)nn1-c1ccc(C(=O)N(C)C)cc1Cl)CCC2` [Example B-114] showed an IC50 of 4 nM. In addition, in the experiment on PC-3 cells, the EC50 stood at 382 nM.
In the case of `CC(=O)Nc1nc2c(s1)-c1c(c(-c3c[nH]cn3)nn1-c1ccc(C3(N(C)C)CC3)cc1)CCC2` [Example B-115], half-maximal inhibition against FRAP1 (mTOR) kinase (IC50) required 2 nM. Also, in the experiment on PC-3 cells, the EC50 amounted to 16 nM.
`CC(=O)Nc1nc2c(s1)-c1c(c(-c3c[nH]cn3)nn1-c1ccccc1Cl)CCC2` [Example B-116]: the IC50 at FRAP1 (mTOR) kinase was determined as 29 nM. Moreover, in the experiment with PC-3 cells, the EC50 is 148 nM.
For `COc1ccccc1-n1nc(-c2c[nH]cn2)c2c1-c1sc(NC(C)=O)nc1CCC2` [Example B-117] the same measures were 35 nM and 306 nM.
For `CCc1ccccc1-n1nc(-c2c[nH]cn2)c2c1-c1sc(NC(C)=O)nc1CCC2` [Example B-118, N-[1-(2-Ethyl-phenyl)-3-(1H-imidazol-4-yl)-1,4,5,6-tetrahydro-9-thia-1,2,7-triaza-cyclopenta[e]azulen-8-yl]-acetamide] the same measures were 17 nM and 55 nM.
The corresponding values for `CC(=O)Nc1nc2c(s1)-c1c(c(-c3c[nH]c(C)n3)nn1-c1ccccc1C)CCC2` [Example B-120, N-[3-(2-Methyl-1H-imidazol-4-yl)-1-o-tolyl-1,4,5,6-tetrahydro-9-thia-1,2,7-triaza-cyclopenta[e]azulen-8-yl]-acetamide] are 65 nM and 250 nM.
With `CC(=O)Nc1nc2c(s1)-c1c(c(-c3c[nH]c(C)n3)nn1CC(C)C)CCC2` [Example B-121, N-[1-Isobutyl-3-(2-methyl-1H-imidazol-4-yl)-1,4,5,6-tetrahydro-9-thia-1,2,7-triaza-cyclopenta[e]azulen-8-yl]-acetamide], at FRAP1 (mTOR) kinase, 35 nM corresponded to half-maximal inhibition (IC50). Also, the EC50 with PC-3 cells is 73 nM.
For `CCNc1ccc(-c2nn(-c3ccccc3)c3c2CCCc2nc(NC(C)=O)sc2-3)cn1` [Example B-122, N-[3-(6-Ethylamino-pyridin-3-yl)-1-phenyl-1,4,5,6-tetrahydro-9-thia-1,2,7-triaza-cyclopenta[e]azulen-8-yl]-acetamide] the same measures were 32 nM and 79 nM.
The corresponding values for `CCNc1ccc(-c2nn(CCOC)c3c2CCCc2nc(NC(C)=O)sc2-3)cn1` [Example B-125] are 114 nM and 253 nM.
For `CCNc1ccc(-c2nn(-c3cccnc3)c3c2CCCc2nc(NC(C)=O)sc2-3)cn1` [Example B-127] the same measures were 83 nM and 137 nM.
At FRAP1 (mTOR) kinase, `CCNc1ccc(-c2nn(-c3cccc(OC)c3)c3c2CCCc2nc(NC(C)=O)sc2-3)cn1` [Example B-128] displayed an IC50 of 108 nM. The EC50 in the experiment with PC-3 cells was determined as 119 nM.
For `C=CCn1nc(-c2ccc(NCC)nc2)c2c1-c1sc(NC(C)=O)nc1CCC2` [Example B-129] the same measures were 93 nM and 265 nM.
For `CCn1nc(-c2ccc(N)nc2)c2c1-c1sc(NC(C)=O)nc1CCC2` [Example B-130, N-[3-(6-Amino-pyridin-3-yl)-1-ethyl-1,4,5,6-tetrahydro-9-thia-1,2,7-triaza-cyclopenta[e]azulen-8-yl]-acetamide] the same measures were 19 nM and 178 nM.
The corresponding values for `CCCn1nc(-c2ccc(N)nc2)c2c1-c1sc(NC(C)=O)nc1CCC2` [Example B-131, N-[3-(6-Amino-pyridin-3-yl)-1-propyl-1,4,5,6-tetrahydro-9-thia-1,2,7-triaza-cyclopenta[e]azulen-8-yl]-acetamide] are 17 nM and 57 nM.
